From ChEMBL document CHEMBL6115002, “Discovery of novel sitolactone derivative leading to PANoptosis and differentiation of acute myeloid leukemia cells” (Eur J Med Chem, 2025)
Active and inactive are the calls of the source. The calls are words filed in the database; no cut-off is given here.

Assays:
RKO = experiment: Antiproliferative activity against human RKO cells assessed as inhibition of cell proliferation incubated for 72 hrs by CCK-8 assay; assay type: functional, cell-based
WEHI-3 [1] = experiment: Induction of cell cycle arrest in mouse WEHI-3 cells assessed as increase in P53 level at 0.15 to 1.2 uM incubated for 24 hrs by Western blotting analysis; assay type: functional, cell-based; settings: dose 0.15-1.2 µM
HCT-116 [2] = experiment: Anti-cancer activity against human HCT-116 cells assessed as reduction in size of spheroids incubated for 24 hrs; assay type: functional, cell-based
[3] = Permeability of compound in human Caco-2 cells; assay type: ADME, cell-based
Kasumi 1 [4] = experiment: Induction of cell cycle arrest in human Kasumi 1 cells assessed as increase in accumulation of cells at G2 phase at 0.5 uM incubated for 24 hrs by propidium iodide staining based flow cytometric analysis (reference value: 9.82%); assay type: functional
Kasumi 1 [5] = experiment: Induction of cell cycle arrest in human Kasumi 1 cells assessed as increase in accumulation of cells at G1 phase at 1 uM incubated for 24 hrs by propidium iodide staining based flow cytometric analysis (reference value: 50.41%); assay type: functional
Calu-1 = experiment: Antiproliferative activity against human Calu-1 cells assessed as inhibition of cell proliferation incubated for 72 hrs by CCK-8 assay; assay type: functional, cell-based; settings: Calu-1, 72 h
A549 = experiment: Antiproliferative activity against human A549 cells assessed as inhibition of cell proliferation incubated for 72 hrs by CCK-8 assay; assay type: functional, cell-based; settings: A549, 72 h
PANC-1 = experiment: Antiproliferative activity against human PANC-1 cells assessed as inhibition of cell proliferation incubated for 72 hrs by CCK-8 assay; assay type: functional, cell-based; settings: PANC-1, 72 h
WEHI-3 [6] = experiment: Antitumor activity against mouse WEHI-3 cells implanted in Balb/c mouse assessed as reduction in liver metastasis at 1 mg/kg, po administered daily for 15 days by H and E staining based analysis; assay type: functional, organism-based; settings: time 15.0 day
HCT-116 [7] = experiment: Antiproliferative activity against human HCT-116 cells assessed as inhibition of cell proliferation incubated for 72 hrs by CCK-8 assay; assay type: functional, cell-based; settings: HCT-116, 72 h
WEHI-3 [8] = experiment: Induction of pyroptosis in mouse WEHI-3 cells assessed as increase in p-RIPK3 level at 0.625 to 5 uM incubated for 72 hrs by Western blotting analysis; assay type: functional, cell-based; settings: dose 0.625-5 µM
WEHI-3 [9] = experiment: Inhibition of colony formation in mouse WEHI-3 cells incubated for 15 days by crystal violet staining based analysis; assay type: functional, cell-based; settings: dose 0.5-1 µM, time 15.0 day
WEHI-3 [10] = experiment: Induction of cell differentiation in mouse WEHI-3 cells assessed as lobulated nuclei at 1 uM incubated for 24 hrs by giemsa-Wrights staining based analysis; assay type: functional
Kasumi 1 [11] = experiment: Disruption of pyruvate metabolic pathway in human Kasumi 1 cells by KEGG enrichment analysis; assay type: functional, cell-based
WEHI-3 [12] = experiment: PANoptosis in mouse WEHI-3 cells assessed as cell death at 1.2 uM incubated for 72 hrs by optical microscopic analysis; assay type: functional, cell-based
[13] = (§1) Toxicity in Balb/c mouse implanted with mouse WEHI-3 cells assessed as separation between white and red pulp area in spleen at 100 to 200 mg/kg, po administered (4aR,6aS,7S,9aS,9bS)-2-(((S)-2-(hydroxymethyl)pyrrolidin-1-yl)methyl)-6a-methyl7 ((triisopropylsilyl)oxy)decahydrocyclopenta[f]chromen-3(2H)-one as prodrug once daily and measured after 15 days; assay type: organism-based; settings: in vivo, 360 h, dose 100-200 mg/kg, time 15 day
Kasumi 1 [14] = experiment: Induction of cell differentiation in human Kasumi 1 cells assessed as lobulated nuclei at 1 uM incubated for 24 hrs by giemsa-Wrights staining based analysis; assay type: functional
Kasumi 1 [15] = experiment: Antiproliferative activity against human Kasumi 1 cells assessed as inhibition cell proliferation incubated for 72 hrs by MTT assay; assay type: functional, cell-based; settings: Kasumi 1, 72 h
Kasumi 1 [16] = experiment: Disruption of citrate metabolic pathway in human Kasumi 1 cells by KEGG enrichment analysis; assay type: functional, cell-based
Kasumi 1 [17] = experiment: Inhibition of colony formation in human Kasumi 1 cells incubated for 15 days by crystal violet staining based analysis; assay type: functional, cell-based; settings: dose 0.5-1 µM, time 15.0 day
Kasumi 1 [18] = experiment: PANoptosis in human Kasumi 1 cells assessed as cell death at 0.6 uM incubated for 72 hrs by optical microscopic analysis; assay type: functional, cell-based
[19] = Induction of cell cycle arrest in mouse WEHI-3 cells assessed as increase in accumulation of cells at G1 phase at 1 uM incubated for 24 hrs by propidium iodide staining based flow cytometric analysis (reference value: 46.93%); assay type: functional
[20] = Induction of cell cycle arrest in mouse WEHI-3 cells assessed as increase in accumulation of cells at S phase at 1 uM incubated for 24 hrs by propidium iodide staining based flow cytometric analysis (reference value: 51.22%); assay type: functional
Kasumi 1 [21] = experiment: Induction of cell cycle arrest in human Kasumi 1 cells assessed as increase in accumulation of cells at G2 phase at 0.25 uM incubated for 24 hrs by propidium iodide staining based flow cytometric analysis (reference value: 9.82%); assay type: functional
WEHI-3 [22] = experiment: Antitumor activity against mouse WEHI-3 cells implanted in Balb/c mouse assessed as reduction in leukocyte number at 100 to 200 mg/kg, po administered (4aR,6aS,7S,9aS,9bS)-2-(((S)-2-(hydroxymethyl)pyrrolidin-1-yl)methyl)-6a-methyl7 ((triisopropylsilyl)oxy)decahydrocyclopenta[f]chromen-3(2H)-one as prodrug once daily and measured after 15 days by H and E staining based analysis; assay type: functional, organism-based; settings: dose 100-200 mg/kg, time 15.0 day
HL-60 = experiment: Antiproliferative activity against human HL-60 cells assessed as inhibition of cell proliferation incubated for 72 hrs by CCK-8 assay; assay type: functional, cell-based; settings: HL-60, 72 h
WEHI-3 [23] = experiment: Induction of apoptosis in mouse WEHI-3 cells assessed as increase in caspase-3 level incubated for 72 hrs by Western blotting analysis; assay type: functional, cell-based; settings: dose 0.625-5 µM
Kasumi 1 [24] = experiment: Induction of cell cycle arrest in human Kasumi 1 cells assessed as increase in P53 level at 0.15 to 1.2 uM incubated for 24 hrs by Western blotting analysis; assay type: functional, cell-based; settings: dose 0.15-1.2 µM
NCI-H358 = experiment: Antiproliferative activity against human NCI-H358 cells assessed as inhibition of cell proliferation incubated for 72 hrs by CCK-8 assay; assay type: functional, cell-based; settings: NCI-H358, 72 h
[25] = Induction of cell cycle arrest in mouse WEHI-3 cells assessed as increase in accumulation of cells at G2 phase at 0.5 uM incubated for 24 hrs by propidium iodide staining based flow cytometric analysis (reference value: 1.85%); assay type: functional
[26] = Induction of cell cycle arrest in mouse WEHI-3 cells assessed as increase in accumulation of cells at S phase at 0.25 uM incubated for 24 hrs by propidium iodide staining based flow cytometric analysis (reference value: 51.22%); assay type: functional
[27] = as §1, with “animal survival” for “separation between white and red pulp area in spleen”; assay type: organism-based; settings: in vivo, 360 h, dose 100-200 mg/kg, time 15 day
NCI-H23 = experiment: Antiproliferative activity against human NCI-H23 cells assessed as inhibition of cell proliferation incubated for 72 hrs by CCK-8 assay; assay type: functional, cell-based; settings: NCI-H23, 72 h
Kasumi 1 [28] = experiment: Induction of cell cycle arrest in human Kasumi 1 cells assessed as increase in P21 level at 0.15 to 1.2 uM incubated for 24 hrs by Western blotting analysis; assay type: functional, cell-based; settings: dose 0.15-1.2 µM
Kasumi 1 [29] = experiment: Induction of pyroptosis in human Kasumi 1 cells assessed as effect on cleaved N-GSDMB at 0.6 to 2.5 uM incubated for 24 hrs by Western blotting analysis; assay type: functional, cell-based; settings: dose 0.6-2.5 µM
BXPC-3 = experiment: Antiproliferative activity against human BXPC-3 cells assessed as inhibition of cell proliferation incubated for 72 hrs by CCK-8 assay; assay type: functional, cell-based; settings: BXPC-3, 72 h

In the case of `C=C1C[C@@H]2[C@@H](CC[C@]3(C)[C@@H](O[Si](C(C)C)(C(C)C)C(C)C)CC[C@@H]23)OC1=O`, the IC50 (RKO) is reported as 2.07 µM, the Activity (WEHI-3 [1]) is reported as “Active” and the Activity (HCT-116 [2]) is reported as “Active”. The permeability [3] was “Permeable”, the Activity (Kasumi 1 [4]) was 14.84% and the Activity (Kasumi 1 [5]) was 58.52%. The IC50 (Calu-1) was 3.6 µM, the IC50 (A549) was 5.24 µM and the IC50 (PANC-1) was 1.31 µM. The Activity (WEHI-3 [6]) was “Active”, the IC50 (HCT-116 [7]) was 1.93 µM and the Activity (WEHI-3 [8]) was “Active”. The inhibition (WEHI-3 [9]) was “Dose-dependent-effect”, the Activity (WEHI-3 [10]) was “Active” and the Activity (Kasumi 1 [11]) was “Active”. For the same compound, the Activity (WEHI-3 [12]) was “Active”, the Activity [13] was “Non-toxic” and the Activity (Kasumi 1 [14]) was “Active”. The IC50 (Kasumi 1 [15]) was 0.57 µM, the Activity (Kasumi 1 [16]) was “Active” and the inhibition (Kasumi 1 [17]) was “Dose-dependent-effect”. The Activity (Kasumi 1 [18]) was “Active”, the Activity [19] was 64.54% and the Activity [20] was 32.07%. The Activity (Kasumi 1 [21]) was 10.77%, the Activity (WEHI-3 [22]) was “Active” and the IC50 (HL-60) was 0.9 µM. The Activity (WEHI-3 [23]) was “Dose-dependent-effect”, the Activity (Kasumi 1 [24]) was “Active” and the IC50 (NCI-H358) was 1.78 µM. For the same compound, the Activity [25] was 3.33%, the Activity [26] was 46.46% and the Activity [27] was “Non-toxic”. For the same compound, the IC50 (NCI-H23) was 4 µM, the Activity (Kasumi 1 [28]) was “Active” and the Activity (Kasumi 1 [29]) was “Active”. It also gave an IC50 (BXPC-3) of over 10 µM.
